Experimental data reported in EP1452605A1, “Method for determining antiviral activity” (Universiteit Utrecht Holding B.V., priority 2003, dated 2004).
pIC50: −log10 of the molar value. “And” between values parts separate entries of the source, which are not always exact repeats. Identical values can stand only once.

Columns and labels:
FIV UT-113 = assay: FIV infection of CrFK cells, FIV p24 ELISA; format: cell-based, Feline immunodeficiency virus (FIV); settings: 100 to 0.024 µM, p24 after 6 days
Description: After 6 days of incubation FIV replication was measured by quantification of the p24 viral core antigen in the cell culture supernatant by an FIV p24 enzyme-linked immunoabsorbent assay as described previously ^19.

MHV-A59 = assay: MHV infection of mouse L cells, CPE scoring; format: cell-based, Mouse hepatitis virus (MHV); settings: 24h, 143 to 0.009 µM
Description: (§1) After 24h, the cytopatic effect (CPE) of the virus and the cytotoxicity of the compounds were scored by microscopic observation.

CrFK cells = assay: Cellular viability assay (MTT) of CrFK cells; format: cell-based, feline; settings: concentrations used in the FIV assay
Mouse L cells = assay: Cytotoxicity in mouse L cells by microscopic observation; settings: mouse L cells, all tested concentrations
Description: as §1

HIV-1HXB2 = assay: Reverse transcription assay in PBMC: (-) strong stop and gag DNA by real-time Taqman PCR; format: cell-based; settings: 10h after infection; for reduction in gag cDNA copies: PBMC
Description: PBMC infection with HIV-1Ba-L or HIV-1HXB2 for real-time Taqman PCR The ability of HIV-1Ba-L to enter the cells in the presence of APHS was tested using DS as positive control (entry assay). The amount of HIV-1HXB2 reverse transcription products in the presence of APHS was also tested, using AZT as positive control (reverse transcription assay). Before infection, PHA-stimulated PBMC from the PBMC batch were pre-incubated with different concentrations of APHS, DS or AZT for 24 h. Afterwards, cells were washed and 1 × 10^6 PBMC were incubated for 40 min with HIV-1Ba-L or HIV-1HXB2 at an M.O.I. of 0.0025 and with appropriate concentrations of APHS, AZT, DS or medium in the presence of 1/20 concentrated M buffer (Roche) and 4U/ml DNase (Roche) to digest possible contaminating viral DNA associated with the virions. Afterwards PBMC were washed and resuspended in medium with or without compounds. Cells were treated with 1 mg/ml Pronase (Roche) to remove virus particles bound to the cells. […] At different time points, 1.0 × 10^6 cells were added to 900 µl Nuclisens lysis buffer (Organon Teknika, Boxtel, The Netherlands) containing 40 µl silica to bind total nucleic acids (Nuclisens isolation kit). For the entry assay, samples were collected 2h after the start of the infection and for the reverse transcription assays samples were collected 2, 7 and 10h after the start of the infection.
HIV RNA and DNA were extracted from samples of infected cells according to a method described before ^23. Briefly, after 10 min of mixing the silica and lysis buffer, tubes were shortly centrifuged at 13,000 rpm and supernatant was discarded. Free non-nucleic acid components were removed by washing the silica particles twice with Nuclisens washing buffer, twice with 70 % ethanol and once with acetone. The silica pellet was dried for 10 min at 56 °C. Total nucleic acids were eluted by resuspending the pellet in 100 µl nuclease-free water. After mixing the tubes for 10 min at 56 °C, tubes were shortly centrifuged and the supernatant was transferred to a new tube and stored at -20 °C.
Real-time Taqman PCR is based on cleavage of a probe, hybridized to the target sequence by 5'-3' nuclease activity of Taq DNA polymerase during amplification, as described previously ^24. Briefly, target sequence-specific forward and reverse primers prime the amplification reaction. The probe contains a reporter dye at the 5' end and a quencher dye at the 3' end. When both dyes are attached to the probe, reporter dye emission is quenched. The probe is displaced from the target during each polymeration cycle. Once separated from the quencher, the reporter dye emits its characteristic fluorescence, which can then be measured. The amount of fluorescence measured is proportional to the amount of PCR product.
HIV-1 gag cDNA and HIV-1 (-) strong stop and gag DNA were amplified and quantified by real-time Taqman PCR as described elsewhere ^25. Sets of primers/probes were designed according to a previous study by Zack and colleagues ^26. To quantify the amount of gag RNA in the samples, a cDNA standard curve was prepared from five-fold dilutions of extracted RNA from an HXB2 viral batch, of which the RNA amount was previously determined. To quantify (-) strong stop and gag DNA in the samples, a DNA standard curve was prepared from five-fold dilutions of DNA extracted from U1 cells, which contain two copies of the HIV-1HXB2 genome per cell. Albumin was also quantified and used for normalization of all samples.

HIV-1Ba-L [1] = assay: Combination of HIV-1 inhibitors in HIV-1Ba-L infected PBMC (checker board, CalcuSyn)
Description: After 7 days of incubation, p24 antigen in culture supernatant was quantified by ELISA and cellular viability was assessed by a cytotoxicity assay. fa was calculated for each drug combination after p24 quantification. Using the CalcuSyn program, dose-effect curves were plotted for each drug combination, i.e., each dose was plotted against the corresponding fa value. […] CI values were calculated using the mutually nonexclusive assumption.

in vitro = settings: human
HIV-1Ba-L [2] = assay: HIV-1 infection of PBMC, p24-core antigen ELISA; format: cell-based; settings: Human immunodeficiency virus 1, PBMC; read-out: IC50
Description: To correct for the input virus, an extra control consisting of medium containing the same amount of input virus as added to the cells was included in the experiment. The amount of p24 in this control was subsequently subtracted from the p24 values of the samples in order to obtain the exact amount of p24 produced by the cells. p24-core antigen quantification by ELISA After 2 or 7 days incubation, samples of the supernatants were collected, inactivated by addition of Empigen (Calbiochem, La Jolla, CA, USA) and by heat inactivation at 56°C for 30 min. p24-core antigen concentration was determined by an enzyme linked immunoabsorbent assay (ELISA) (AMPAK™, DAKO, Cambridgeshire, UK) as described previously ^18,19. The optical density values were converted into p24 concentration (ng/ml) with the use of a calibration curve made by serial dilutions of recombinant p24 protein (NIBSC, UK) that was submitted to the same treatment as the samples.
(§2) To correct for the input virus, an extra control consisting of medium containing the same amount of input virus as added to the cells was included in the experiment. The amount of p24 in this control was subsequently subtracted from the p24 values of the samples in order to obtain the exact amount of p24 produced by the cells.
(§3) After 7 days incubation, samples of the supernatants were collected, inactivated by addition of Empigen (Calbiochem, La Jolla, CA, USA) and by heat inactivation at 56°C for 30 min. p24-core antigen concentration was determined by an ELISA (AMPAK™, DAKO, Cambridgeshire, UK) as described previously ^39,40. The optical density values were converted into p24 concentration (ng/ml) with the use of a calibration curve made by serial dilutions of recombinant p24 protein (NIBSC, UK) that was submitted to the same treatment as the samples.
as §2
as §3, with “enzyme linked immunoabsorbent assay (ELISA)” for “ELISA”, “15,16.” for “^39,40.”

CCCCCSc1ccccc1O [APHS-d, phenol, 2-(pentylthio)]
effect on FIV replication (FIV UT-113): did not show any effect
effect on MHV replication (CPE) (MHV-A59): no effect
cytotoxicity for CrFK cells (CrFK cells): not cytotoxic
cytotoxicity by microscopic observation (Mouse L cells): not cytotoxic

Cc1cn([C@H]2C[C@H](N=[N+]=[N-])[C@@H](CO)O2)c(=O)[nH]c1=O [AZT, zidovudine]
reduction in gag cDNA copies (HIV-1HXB2; 5 nM AZT): 35% and 40%
reduction in gag cDNA copies (HIV-1HXB2; 1000 nM AZT): 90%
(-) strong stop DNA copy numbers versus untreated PBMC (HIV-1HXB2; 10 or 30 µM APHS, 5 or 1000 nM AZT): did not show a significant decrease
pIC50 (HIV-1Ba-L [1]; Human immunodeficiency virus 1, PBMC, 168 h, read-out: IC50 Drug, drug alone, head over this column prints Combination): 8.52
pIC50 (HIV-1Ba-L [1]; read-out: IC50 Combination Drug, drug in combination with APHS at the equipotent ratio (1 : 1)): 8.70
CC50 at 7 days (in vitro): > 80000 nM
pIC50 (HIV-1Ba-L [2]): 8.52
